Results from US20230104692A1, “DMEU ENHANCER” (priority 2020, published 2023).

What was measured:
[1] = loading concentration of saturated active ingredient solution in penetration accelerator; format: physicochemical; conditions: for loading concentration in dimethyl isosorbide: dimethyl isosorbide as penetration accelerator; for loading concentration of saturated solution in DMEU: donor volume 150 μl
Procedure: The following test series with the various penetration accelerators and for the selected active ingredients were carried out in the context of a typical in vitro permeation using Franz diffusion cells. The used acceptor medium was replaced completely for a new one at predetermined replacement times, and the content of permeated active ingredient amount in these acceptor solutions was determined by means of HPLC.

[2] = in words; cited from earlier work

| loading concentration in dimethyl isosorbide [1] | loading concentration of saturated solution in DMEU [1] | loading concentration in dipropylene glycol ([1]; dipropylene glycol as penetration accelerator) | SMILES | water solubility [2] |
| --- | --- | --- | --- | --- |
| 1.29 mg/cm^2 | 12.75 mg/cm^2 | – | COc1cc(/C=C/C(=O)CC(=O)/C=C/c2ccc(O)c(OC)c2)ccc1O [Curcumin] | almost insoluble in water |
| 6.4 mg/cm^2 | 27.7 mg/cm^2 | 2.1 mg/cm^2 | CC(=O)[C@H]1CC[C@H]2[C@@H]3CCC4=CC(=O)CC[C@]4(C)[C@H]3CC[C@]12C [Progesterone] | almost insoluble in water |
| – | – | – | Cc1cc2c(s1)Nc1ccccc1N=C2N1CCN(C)CC1 [Olanzapine] | almost insoluble in water |
| – | – | – | CCOC(=O)C1=C(C)NC(C)=C(C(=O)OC)C1c1cccc(Cl)c1Cl (stereo not drawn) [Felodipine] | almost insoluble in water |
